Assay results reported in PubChem BioAssay AID1963978 (Molecular Pharmacology Branch, DTP, NCI, 2024).

Test system: 616215-338-R-J1-PDC spheroids with HUVEC/MSC, viability
Experiment: Anticancer human tumor 616215-338-R-J1-PDC patient-derived colon adenocarcinoma cell line growth inhibition [PI3K]
Conditions: for viability, T/C: stronger effect = lower value; for IC50: curve of first compound
From the text: Combinatorial screen of targeted agents with the PI3K inhibitors inavolisib, alpelisib, duvelisib, and copanlisib in multi-cell type tumor spheroids
A high-throughput screen of multi-cell type tumor spheroids was designed to identify active combinations of targeted small molecules and PI3K pathway inhibitors. Complex spheroids include a stromal component modeled by human endothelial cells (HUVEC) and fibroblasts modeled by human mesenchymal stem cells (MSCs). The concentration ranges selected for each drug and investigational agent were based upon clinically achievable concentrations if the clinical Cmax of the agent was known.
Compounds. The drugs and investigational agents: inavolisib (NSC800729), alpelisib (NSC765974), duvelisib (NSC772469), copanlisib (NSC816437), ipatasertib (NSC767898), afuresertib (NSC778305), talazoparib (NSC767125), sapanisertib (NSC764658), selumetinib (NSC741078), tovorafenib (DAY101, NSC766906), vemurafenib (NSC761431), ravoxertinib (NSC781343), sotorasib (NSC818433), MRTX1133 (NSC 836407), abemaciclib (NSC 768073), palbociclib (NSC758247), venetoclax (NSC 766270), SY5609 (NSC837396), enzalutamide (NSC755605), and darolutamide (NSC825331), were obtained from the National Cancer Institute (NCI) Developmental Therapeutics Program Chemical Repository. The FDA-approved anticancer drug set is available from the NCI Developmental Therapeutics Program. […] The stock solutions were prepared in dimethyl sulfoxide (DMSO, Sigma-Aldrich, St. Louis, MO, cat. D2650) at 800-fold the tested concentration and stored at -70 degrees C prior to their use. All drugs and investigational agents were tested over a range starting from a high concentration at or near the clinical Cmax and decreasing in half-log increments. If the clinical Cmax for an agent had not been determined, the highest concentration tested was 10 microM.
Cell Culture. All cells were maintained in an incubator at 37 degrees C and 5% CO2 with 95% humidity. The PDC lines were cultured according to standard operating procedures established by the NCI PDMR (https://pdmr.cancer.gov/sops/default.htm). All PDCs were thawed and cultured in Matrigel-coated flasks prepared with a working solution of 1X Ham's F-12 nutrient mix, without supplementation (Invitrogen, Waltham, MA, cat. 11765054), 100 U/mL penicillin-streptomycin (Invitrogen, cat. 15140122), and 2.5% Matrigel (Corning Inc., Corning, NY, cat. 354248) for the first three passages. The 354836-022-R-J1-PDC, 475296-252-R-J1-PDC, and 997726-040-R-J2-PDC lines were cultured in 6A media, which includes advanced DMEM/F-12 (Thermo Fisher Scientific, cat. 12634028), 10 mM HEPES (Thermo Fisher Scientific, cat. 15630080), 1X GlutaMAX supplement (Thermo Fisher Scientific, cat. 35050061), 0.1 mg/mL primocin (InvivoGen, San Diego, CA, cat. ant-pm-2), 10% defined fetal bovine serum, heat inactivated (HyClone Laboratories Inc., Logan, UT, cat. SH30070.03HI), 50% L-WRN conditioned media (ATCC, cat. CRL-3276), 1.25 mM N-Acetyl-L-cysteine (Sigma-Aldrich, cat. A9165), 10 mM nicotinamide (Sigma-Aldrich, cat. N0636), 1X B-27 supplement (Thermo Fisher Scientific, cat. 17504044), 1X N-2 supplement (Thermo Fisher Scientific, cat. 17502048), and 10 microM Y-27632 dihydrochloride (Tocris Bioscience, Bristol, United Kingdom, cat. 1254). The 624824-186-R-J2-PDC line was cultured in 6C/Colon 1B media, which includes all 6A media components plus 50 ng/mL human EGF recombinant protein (Thermo Fisher Scientific, cat. PHG0311). […]
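Also: spheroids exposed to agents for seven days before the viability read.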

CC1(C)CCC(CN2CCN(c3ccc(C(=O)NS(=O)(=O)c4ccc(NCC5CCOCC5)c([N+](=O)[O-])c4)c(Oc4cnc5[nH]ccc5c4)c3)CC2)=C(c2ccc(Cl)cc2)C1
viability, T/C (compound 0.1 µM): 99.5% [middle of 4 runs] | viability, T/C (compound 0.316 µM): 96.5% [middle of 4 runs] | viability, T/C (compound 1 µM): 96.4% [middle of 4 runs] | viability, T/C (compound 3.16 µM): 77.8% [middle of 4 runs]

CC1(C)CCC(Nc2ncc(C(F)(F)F)c(-c3c[nH]c4c(P(C)(C)=O)c(C#N)ccc34)n2)CN1 (configuration not stated)
viability, T/C (compound 0.1 µM): 54.8% [middle of 4 runs] | viability, T/C (compound 1 µM): 60.8% [middle of 4 runs] | viability, T/C (compound 3.16 µM): 55.7% [middle of 4 runs] | viability, T/C (compound 10 µM): 0.49% [middle of 4 runs]

CNC(=O)c1ccc(N2C(=S)N(c3ccc(C#N)c(C(F)(F)F)c3)C(=O)C2(C)C)cc1F + CC(Nc1ccc2c(c1)OCCn1cc(N3C(=O)OCC3C(F)F)nc1-2)C(N)=O
IC50 (second compound 0.00316 µM): > 10000 nM | IC50 (second compound 0.01 µM): > 10000 nM | IC50 (second compound 0.0316 µM): > 10000 nM | IC50 (second compound 0.1 µM): > 10000 nM | IC50 (second compound 0.316 µM): > 10000 nM | IC50 (second compound 1 µM): > 10000 nM | viability, T/C (second compound 0.00316 µM, first compound 0.0316 µM): 102% | viability, T/C (second compound 0.00316 µM, first compound 0.1 µM): 89.1% | viability, T/C (second compound 0.00316 µM, first compound 0.316 µM): 101% | viability, T/C (second compound 0.00316 µM, first compound 1 µM): 94.5% | viability, T/C (second compound 0.00316 µM, first compound 3.16 µM): 112% | viability, T/C (second compound 0.00316 µM, first compound 10 µM): 100% | viability, T/C (second compound 0.01 µM, first compound 0.0316 µM): 94.7% | viability, T/C (second compound 0.01 µM, first compound 0.1 µM): 101% | viability, T/C (second compound 0.01 µM, first compound 0.316 µM): 98.3% | viability, T/C (second compound 0.01 µM, first compound 1 µM): 105% | viability, T/C (second compound 0.01 µM, first compound 3.16 µM): 99.7% | viability, T/C (second compound 0.01 µM, first compound 10 µM): 95% | viability, T/C (second compound 0.0316 µM, first compound 0.0316 µM): 105% | viability, T/C (second compound 0.0316 µM, first compound 0.1 µM): 94% | viability, T/C (second compound 0.0316 µM, first compound 0.316 µM): 102% | viability, T/C (second compound 0.0316 µM, first compound 1 µM): 97.9% | viability, T/C (second compound 0.0316 µM, first compound 3.16 µM): 99.8% | viability, T/C (second compound 0.0316 µM, first compound 10 µM): 102% | viability, T/C (second compound 0.1 µM, first compound 0.0316 µM): 102% | viability, T/C (second compound 0.1 µM, first compound 0.1 µM): 87.2% | viability, T/C (second compound 0.1 µM, first compound 0.316 µM): 110% | viability, T/C (second compound 0.1 µM, first compound 1 µM): 97.7% | viability, T/C (second compound 0.1 µM, first compound 3.16 µM): 96.2% | viability, T/C (second compound 0.1 µM, first compound 10 µM): 108% | viability, T/C (second compound 0.316 µM, first compound 0.0316 µM): 95% | viability, T/C (second compound 0.316 µM, first compound 0.1 µM): 113% | viability, T/C (second compound 0.316 µM, first compound 0.316 µM): 107% | viability, T/C (second compound 0.316 µM, first compound 1 µM): 102% | viability, T/C (second compound 0.316 µM, first compound 3.16 µM): 102% | viability, T/C (second compound 0.316 µM, first compound 10 µM): 94.5% | viability, T/C (second compound 1 µM, first compound 0.0316 µM): 104% | viability, T/C (second compound 1 µM, first compound 0.1 µM): 94.2% | viability, T/C (second compound 1 µM, first compound 0.316 µM): 102% | viability, T/C (second compound 1 µM, first compound 1 µM): 104% | viability, T/C (second compound 1 µM, first compound 3.16 µM): 104% | viability, T/C (second compound 1 µM, first compound 10 µM): 86.7%

Cn1cnc2c(F)c(Nc3ccc(Br)cc3Cl)c(C(=O)NOCCO)cc21 + CC(Nc1ccc2c(c1)OCCn1cc(N3C(=O)OCC3C(F)F)nc1-2)C(N)=O
IC50 (second compound 0.00316 µM): 1400 nM | IC50 (second compound 0.01 µM): 1160 nM | IC50 (second compound 0.0316 µM): 764 nM | IC50 (second compound 0.1 µM): 982 nM | IC50 (second compound 0.316 µM): 495 nM | IC50 (second compound 1 µM): 408 nM | viability, T/C (second compound 0.00316 µM, first compound 0.00949 µM): 96.5% | viability, T/C (second compound 0.00316 µM, first compound 0.03 µM): 98.9% | viability, T/C (second compound 0.00316 µM, first compound 0.0949 µM): 83.7% | viability, T/C (second compound 0.00316 µM, first compound 0.3 µM): 76% | viability, T/C (second compound 0.00316 µM, first compound 0.949 µM): 56.8% | viability, T/C (second compound 0.00316 µM, first compound 3 µM): 36.5% | viability, T/C (second compound 0.01 µM, first compound 0.00949 µM): 94.6% | viability, T/C (second compound 0.01 µM, first compound 0.03 µM): 91% | viability, T/C (second compound 0.01 µM, first compound 0.0949 µM): 87.8% | viability, T/C (second compound 0.01 µM, first compound 0.3 µM): 71.8% | viability, T/C (second compound 0.01 µM, first compound 0.949 µM): 54.7% | viability, T/C (second compound 0.01 µM, first compound 3 µM): 31.4% | viability, T/C (second compound 0.0316 µM, first compound 0.00949 µM): 96.1% | viability, T/C (second compound 0.0316 µM, first compound 0.03 µM): 110% | viability, T/C (second compound 0.0316 µM, first compound 0.0949 µM): 77.2% | viability, T/C (second compound 0.0316 µM, first compound 0.3 µM): 77.5% | viability, T/C (second compound 0.0316 µM, first compound 0.949 µM): 38.3% | viability, T/C (second compound 0.0316 µM, first compound 3 µM): 38.8% | viability, T/C (second compound 0.1 µM, first compound 0.00949 µM): 106% | viability, T/C (second compound 0.1 µM, first compound 0.03 µM): 86.9% | viability, T/C (second compound 0.1 µM, first compound 0.0949 µM): 87.2% | viability, T/C (second compound 0.1 µM, first compound 0.3 µM): 65.2% | viability, T/C (second compound 0.1 µM, first compound 0.949 µM): 48.9% | viability, T/C (second compound 0.1 µM, first compound 3 µM): 37% | viability, T/C (second compound 0.316 µM, first compound 0.00949 µM): 109% | viability, T/C (second compound 0.316 µM, first compound 0.03 µM): 94.8% | viability, T/C (second compound 0.316 µM, first compound 0.0949 µM): 79.4% | viability, T/C (second compound 0.316 µM, first compound 0.3 µM): 57.4% | viability, T/C (second compound 0.316 µM, first compound 0.949 µM): 39% | viability, T/C (second compound 0.316 µM, first compound 3 µM): 35.9% | viability, T/C (second compound 1 µM, first compound 0.00949 µM): 106% | viability, T/C (second compound 1 µM, first compound 0.03 µM): 85.1% | viability, T/C (second compound 1 µM, first compound 0.0949 µM): 79.7% | viability, T/C (second compound 1 µM, first compound 0.3 µM): 51.6% | viability, T/C (second compound 1 µM, first compound 0.949 µM): 37.5% | viability, T/C (second compound 1 µM, first compound 3 µM): 26.4%
